Experimental data as given in publication PMC5584707, “Pro-Secretory Activity and Pharmacology in Rabbits of an Aminophenyl-1,3,5-Triazine CFTR Activator for Dry Eye Disorders” (Investigative Ophthalmology & Visual Science, 2017).

Columns and labels:
tear volume in mice = conditions: delivered topically; cited from earlier work
human wildtype CFTR = conditions: cell cultures, cited from earlier work
[1] = test system: lacrimal gland ablation models in mice; design: method as in PMID 26842854; conditions: cited from earlier work
ENaC [2] = test: Ocular surface potential difference (PD) in vivo, amiloride-sensitive sodium channel; conditions: rabbit in vivo, amiloride 100 μM, average
Procedure: (§1) Open-circuit transepithelial potential difference (PD, in mV) at the ocular surface was measured continuously in anesthetized rabbits using a procedure modified from that established in mice.[8] Rabbits were intubated and anesthetized with isoflurane, and respiratory rate, blood pressure, and body temperature were monitored. For PD recording, solutions (see below) were serially perfused at 10 mL/min through PE-90 plastic tubing using a gravity multireservoir pinch-valve system (ALA Scientific, Westbury, NY, USA) and a variable-flow peristaltic pump (medium flow model; Thermo Fisher Scientific, Fair Lawn, NJ, USA). A perfusion catheter was fixed onto an adjustable stereotaxic frame with the tip immersed in solution contacting the ocular surface, as diagrammed in Figure 2A. Excess fluid was aspirated by continuous suction (low-powered wall vacuum) using 1/8-inch tubing (inner diameter 3/32 inch) placed 3 mm from the lateral canthus to maintain near-constant perfusate volume in contact with cornea, bulbar conjunctiva, and palpebral conjunctiva without fluid runoff. The measuring electrode contacted the perfusion catheter and was connected to a high-impedance voltmeter (IsoMilivolt Meter; World Precision Instruments, Sarasota, FL, USA). The reference electrode was grounded using a winged, 25-gauge needle filled with normal saline inserted subcutaneously in the abdomen. […]

ENaC [3] = test: Short-circuit current in freshly isolated conjunctiva, amiloride; assay type: biochemical; conditions: ex vivo rabbit conjunctiva, 10 μM
Procedure: (§2) Short-circuit current was measured in freshly isolated rabbit conjunctiva, as described[16] with modification. Rabbits were euthanized by injection of 150 mg/kg euthasol into the marginal ear vein. The entire eyeball with eyelids intact was removed from the orbit to preserve conjunctival epithelial integrity. Within 10 minutes, a sheet of forniceal and palpebral conjunctiva was dissected, mounted onto a P2304 tissue slider (Physiologic Instruments, San Diego, CA, USA), and placed into the Ussing chamber. The apical and basolateral chambers contained (in mM): 120 NaCl, 3 KCl, 1 CaCl2, 1 MgCl2, 10 glucose, 25 NaHCO3, and 5 HEPES, pH 7.4. Solutions were bubbled with 95% O2/5% CO2 and maintained at 37°C. Hemichambers were connected to a DVC-1000 voltage clamp (World Precision Instruments Inc., Sarasota, FL, USA) via Ag/AgCl electrodes and 3 M KCl agar bridges.

dry eye = test system: dry eye; design: method as in PMID 15502479; conditions: United States; cited from earlier work
[4] = target: T1, CFTR in rabbit forniceal and palpebral conjunctiva (Oryctolagus cuniculus, UniProt Q00554); test: Short-circuit current in freshly isolated conjunctiva, CFTR; assay type: biochemical; conditions: ex vivo rabbit conjunctiva
T1 construct: a sheet of forniceal and palpebral conjunctiva was dissected; from tissue; host or cells: freshly isolated rabbit forniceal and palpebral conjunctiva in an Ussing chamber
Procedure: as §2, with “Solutions were bubbled with 95% O2/5% CO2 and maintained at 37°C.” left out

[5] = target: T2, CFTR chloride conductance at the rabbit ocular surface (Oryctolagus cuniculus, UniProt Q00554); test: Ocular surface potential difference (PD) in vivo, CFTR
T2 construct: from tissue; host or cells: ocular surface (cornea, bulbar and palpebral conjunctiva) of living anesthetized rabbits
Procedure: as §1

T1 sequence (Q00554 whole entry): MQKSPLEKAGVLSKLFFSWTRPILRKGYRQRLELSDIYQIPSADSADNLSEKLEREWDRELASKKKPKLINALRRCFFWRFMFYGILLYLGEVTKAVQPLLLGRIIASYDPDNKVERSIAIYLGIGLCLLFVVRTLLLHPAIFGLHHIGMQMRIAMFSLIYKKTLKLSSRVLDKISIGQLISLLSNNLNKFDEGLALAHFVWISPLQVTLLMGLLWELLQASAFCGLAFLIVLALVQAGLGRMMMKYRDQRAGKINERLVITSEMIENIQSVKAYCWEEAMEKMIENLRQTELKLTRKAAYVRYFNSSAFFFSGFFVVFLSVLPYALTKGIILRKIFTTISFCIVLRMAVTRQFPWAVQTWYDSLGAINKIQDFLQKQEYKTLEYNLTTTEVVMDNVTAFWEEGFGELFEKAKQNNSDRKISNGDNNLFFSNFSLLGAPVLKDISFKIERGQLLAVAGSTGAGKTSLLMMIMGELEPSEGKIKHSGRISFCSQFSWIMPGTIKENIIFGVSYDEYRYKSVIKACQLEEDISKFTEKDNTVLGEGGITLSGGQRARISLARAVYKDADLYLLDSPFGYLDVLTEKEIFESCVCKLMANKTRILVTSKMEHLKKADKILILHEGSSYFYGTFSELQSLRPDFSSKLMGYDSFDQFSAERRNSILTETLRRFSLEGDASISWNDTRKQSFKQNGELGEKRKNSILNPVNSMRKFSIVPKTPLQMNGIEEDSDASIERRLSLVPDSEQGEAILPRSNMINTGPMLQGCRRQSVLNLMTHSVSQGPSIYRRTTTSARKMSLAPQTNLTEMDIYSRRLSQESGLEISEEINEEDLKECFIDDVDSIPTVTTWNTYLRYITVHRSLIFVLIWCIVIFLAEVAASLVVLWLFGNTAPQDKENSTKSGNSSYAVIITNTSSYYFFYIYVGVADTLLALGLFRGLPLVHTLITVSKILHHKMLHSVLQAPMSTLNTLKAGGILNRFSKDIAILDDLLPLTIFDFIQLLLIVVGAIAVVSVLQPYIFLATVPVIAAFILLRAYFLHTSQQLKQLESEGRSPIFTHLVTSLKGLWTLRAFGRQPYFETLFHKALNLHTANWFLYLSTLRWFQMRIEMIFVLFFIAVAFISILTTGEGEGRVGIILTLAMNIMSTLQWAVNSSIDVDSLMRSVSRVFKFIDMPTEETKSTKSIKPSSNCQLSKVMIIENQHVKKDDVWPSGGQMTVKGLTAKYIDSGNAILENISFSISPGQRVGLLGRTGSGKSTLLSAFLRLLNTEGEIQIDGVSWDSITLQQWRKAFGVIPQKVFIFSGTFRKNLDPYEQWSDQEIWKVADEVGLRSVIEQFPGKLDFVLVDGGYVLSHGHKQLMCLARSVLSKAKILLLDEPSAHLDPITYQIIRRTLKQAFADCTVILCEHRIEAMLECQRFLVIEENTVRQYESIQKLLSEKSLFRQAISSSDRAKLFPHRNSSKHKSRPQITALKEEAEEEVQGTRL
T2 sequence (Q00554 whole entry): as above

Compound: CCN(CC)c1nc(Nc2ccccc2)nc(OC(C(F)(F)F)C(F)(F)F)n1 [CFTRact-K089]
- Duration of increase in tear volume (tear volume in mice): 4 h
- Effect on tear volume (tear volume in mice): doubled tear volume
- Extent of CFTR activation (human wildtype CFTR): fully activated CFTR
- EC50 (human wildtype CFTR; read-out: EC50 of CFTR activation): ~250 nM
- Effect on pathology when administered after development of dry eye [1]: reversed pathology
- Effect on corneal epithelial disruption ([1]; three times daily): prevented corneal epithelial disruption
- Effect on tear volume ([1]; three times daily): normalized tear volume

Compound: N=C(N)NC(=O)c1nc(Cl)c(N)nc1N [amiloride]
- Depolarization of ocular surface PD (ENaC [2]): ~5 mV
- Effect on short-circuit current (ENaC [3]): no amiloride effect
- Effect on short-circuit current (ENaC [3]; listed as Amiloride): no effect

Compound: O=c1ccn([C@@H]2O[C@H](COP(=O)(O)OP(=O)(O)OP(=O)(O)OP(=O)(O)OC[C@H]3O[C@@H](n4ccc(=O)[nH]c4=O)[C@H](O)[C@@H]3O)[C@@H](O)[C@H]2O)c(=O)[nH]1 [diquafosol]
- Efficacy in phase III trials (dry eye): did not show efficacy

Compound: C=C[C@@]1(C)CC(=O)[C@]2(O)[C@@]3(C)[C@@H](O)CCC(C)(C)[C@@H]3[C@H](O)[C@H](OC(C)=O)[C@@]2(C)O1 [forskolin]
- CFTR activation (short-circuit current) ([4]; high concentration): Maximal CFTR activation
- Change in short-circuit current ([4]; low concentration 25 nM): small increase in current
- Further change in ocular surface PD on top of CFTRact-K267 ([5]; forskolin 20 μM after 10 μM CFTRact-K267): minimally further increased

Compound: CFTRinh-172
- Effect on increases in short-circuit current ([4]; CFTR inhibitor added last): inhibited
- Reversal of PD changes ([5]; CFTRinh-172 10 μM in final perfusion solution): largely reversed
